How the values were obtained:
[1] = target: L-selectin; assay: Inhibitory test on the binding of L-selectin to sialyl Le^X (selectin-IgG chimera); conditions: inhibition of L-selectin IgG chimera binding to sialyl Le^X-pentaceramide
Description: (§1) The experiment was carried out according to the method using selectin-IgG chimera, which was reported by Foxall, C. et al. (J. Cell Biol., 117, 895-902 (1992)).
(§2) Sialyl Le^X -pentaceramide was dissolved in 50% methanol in distilled water, and the solution was put into a 96-well plate in an amount of 100 pmol/well. The plate was allowed to stand at room temperature overnight, and the solvent therein was evaporated. The plate was washed with distilled water, and subjected to blocking with 50 mM imidazole buffer (pH 7.2) containing 5% BSA (bovine serum albumin) and 1 mM calcium chloride at room temperature for one hour.
(§3) Separately, to 500-fold diluted solution of each biotinylated anti-human IgG Fc and streptavidin-alkaline phosphatase conjugate with a 50 mM imidazole buffer (pH 7.2) containing 1% BSA and 1 mM calcium chloride, P-selectin IgG chimera was added to give a final concentration of 40 μg/ml, and the mixture was incubated at room temperature for 30 minutes to give the complex solution.
(§4) A test compound was dissolved in DMSO (except that the test compound h was dissolved in distilled water) to give 10 mM aqueous solution thereof, which was serially diluted with 50 mM imidazole buffer (pH 7.2) containing 1% BSA and 1 mM calcium chloride to give the solutions in 8 various concentrations (two-fold serial dilution from 20 μM). The test compound solution in each concentration and the above complex solution were mixed in equal volume, and the mixture was incubated at room temperature for 30 minutes to give the reaction solution.
(§5) After the blocking was completed, the blocking solution in the above plate was discarded, and the plate was washed with 50 mM imidazole buffer (pH 7.2), and thereto was added the above reaction solution in an amount of 50 μl/well. The plate was incubated at 37° C. for 45 minutes, and then washed three times with 50 mM imidazole buffer (pH 7.2) and washed three times with distilled water. 1M diethanolamine (pH 9.8) containing 0.01% magnesium chloride and 1 mg/ml p-nitrophenyl phosphate was put into each well in an amount of 50 μl/well, and the plate was allowed to stand for 1 to 2 hours for color development. The absorbance at 405 nm was measured, and the binding rate (%) was calculated by the following equation, based on the absorbance (X) of the wells containing a test compound at various concentrations and the absorbance (A) of the wells containing no test compound.
(§6) IC50 was evaluated by probit method from the binding rate.
Inhibitory test on the binding of L-selectin to sialyl Le^X :
The same procedures of Experiment 1 were repeated except that L-selectin IgG chimera (40 μg/ml) was used instead of P-selectin IgG chimera (40 μg/ml).

[2] = target: P-selectin; assay: Inhibitory test on the binding of P-selectin to sialyl Le^X (selectin-IgG chimera); conditions: inhibition of P-selectin IgG chimera binding to sialyl Le^X-pentaceramide
Description: Inhibitory test on the binding of P-selectin to sialyl Le^X :
as §1, §2, §3, §4, §5, §6

Structure (SMILES) | IC50 [1] | IC50 [2]
CCCCCCCCCCCCCCC(CCCCCCCCCCCCCC)C(=O)N[C@@H](CO[C@@H]1O[C@H]([C@H](C)O)[C@@H](O)[C@@H]1O)C(=O)NCCCC(=O)O [compound e, 4-N-[N-(2-tetradecylhexadecanoyl)-O-(α-L-fucofuranosyl)-L-seryl]aminobutyric acid] | 1.8 µM | 0.5 µM
CCCCCCCCCCCCCCC(CCCCCCCCCCCCCC)C(=O)N[C@@H](CO[C@@H]1O[C@@H](C)[C@@H](O)[C@@H](O)[C@@H]1O)C(=O)N[C@@H](CCC(=O)O)C(=O)NC [compound i, [N-(2-tetradecylhexadecanoyl)-O-(α-L-fucopyranosyl)-L-seryl]-L-glutamic acid 1-methylamide] | 39 µM | 1.9 µM
CCCCCCCCCCCCCCC(CCCCCCCCCCCCCC)C(=O)N[C@@H](CO[C@@H]1O[C@H]([C@H](C)O)[C@@H](O)[C@@H]1O)C(=O)N[C@@H](CCC(=O)O)C(=O)NC [compound a, [N-(2-tetradecylhexadecanoyl)-O-(α-L-fucofuranosyl)-L-seryl]-L-glutamic acid 1-methylamide] | 2.2 µM | 1.3 µM
CCCCCCCCCCCCCCC(CCCCCCCCCCCCCC)C(=O)N[C@@H](CO[C@@H]1O[C@H]([C@H](C)O)[C@@H](O)[C@@H]1O)C(=O)NCCCCC(=O)O [compound f, 5-N-[N-(2-tetradecylhexadecanoyl)-O-(α-L-fucofuranosyl)-L-seryl]aminovaleric acid] | 2.5 µM | 1.2 µM

The next lines start with the values.

IC50 [1] | IC50 [2] | Structure (SMILES)
0.2 µM | 0.1 µM | CCCCCCCCCCCCCCC(CCCCCCCCCCCCCC)C(=O)N[C@@H](CS[C@@H]1O[C@@H](C)[C@@H](O)[C@@H](O)[C@@H]1O)C(=O)N[C@@H](CCC(=O)O)C(=O)NC [compound q, [N-(2-tetradecylhexadecanoyl)-S-(α-L-fucopyranosyl)-L-cysteinyl]-L-glutamic acid 1-methylamide]
1.6 µM | 0.3 µM | CCCCCCCCCCCCCCC(CCCCCCCCCCCCCC)C(=O)N[C@H](CO[C@H]1O[C@@H](C)[C@@H](O)[C@@H](O)[C@@H]1O)C(=O)N[C@@H](CCC(=O)O)C(=O)NC [compound o, [N-(2-tetradecylhexadecanoyl)-O-(β-L-fucopyranosyl)-D-seryl]-L-glutamic acid 1-methylamide]
0.8 µM | 0.6 µM | CCCCCCCCCCCCCCC(CCCCCCCCCCCCCC)C(=O)N[C@@H](CO[C@H]1O[C@@H](C)[C@@H](O)[C@@H](O)[C@@H]1O)C(=O)N[C@@H](CCC(=O)O)C(=O)NC [compound m, [N-(2-tetradecylhexadecanoyl)-O-(β-L-fucopyranosyl)-L-seryl]-L-glutamic acid 1-methylamide]
0.7 µM | 0.2 µM | CCCCCCCCCCCCCCC(CCCCCCCCCCCCCC)C(=O)N[C@@H](CS[C@@H]1O[C@@H](C)[C@@H](O)[C@@H](O)[C@@H]1O)C(=O)N[C@H](CCC(=O)O)C(=O)NC [compound r, [N-(2-tetradecylhexadecanoyl)-S-(α-L-fucopyranosyl)-L-cysteinyl]-D-glutamic acid 1-methylamide]
6 µM | 0.5 µM | CCCCCCCCCCCCCCC(CCCCCCCCCCCCCC)C(=O)N[C@@H](CO[C@@H]1O[C@@H](C)[C@@H](O)[C@@H](O)[C@@H]1O)C(=O)N[C@H](CCC(=O)O)C(=O)NC [compound j, [N-(2-tetradecylhexadecanoyl)-O-(α-L-fucopyranosyl)-L-seryl]-D-glutamic acid 1-methylamide]
0.1 µM | 0.1 µM | CCCCCCCCCCCCCCC(CCCCCCCCCCCCCC)C(=O)N[C@H](CS[C@@H]1O[C@@H](C)[C@@H](O)[C@@H](O)[C@@H]1O)C(=O)N[C@@H](CCC(=O)O)C(=O)NC [compound s, [N-(2-tetradecylhexadecanoyl)-S-(α-L-fucopyranosyl)-D-cysteinyl]-L-glutamic acid 1-methylamide]
